Test results: patent US20250320247A1, “NOVEL D-AMINO ACID DERIVATIVE AND PHARMACEUTICAL COMPOSITION COMPRISING SAME” (SENELIX CO., LTD., priority 2022, published 2025)
Non-standard residues stand in square brackets, D forms with d. Residues, ends and D or L forms follow the SMILES beside them.

Columns and labels:
[1] = tested on: TNF-α; test: In-vitro anti-inflammatory test: TNF-α production by ELISA in LPS-treated macrophages (RAW 264.7); type: cell-based; conditions: RAW 264.7, LPS 100 ng/ml, test substance 1 μM and 10 μM, 24 hours, vs LPS-only control
Method: (§1) Lipopolysaccharide (LPS)-treated macrophages (RAW 264.7) were treated with the compounds prepared in Examples 1 and 2 as test substances, respectively, and the change in the production of inflammatory cytokines (TNF-α and IL-1β) was measured by ELISA and western blotting, respectively.
Specifically, 1×10^4 macrophages (RAW 264.7) were dispensed in each well of a 96-well plate together with 0.1 mL of Dulbecco's modified Eagle's medium (DMEM) containing 10% FBS (GIBCO) and 1% penicillin/streptomycin. After incubation for 1 day in a 5% CO2 incubator at 37° C., when the confluency of the cells reached 80% or higher, LPS (100 ng/ml) and the test substance were treated at concentrations of 1 μM and 10 μM, respectively, and incubated for 24 hours. A control group was treated only with LPS (100 ng/ml) and incubated for 24 hours. The supernatant of each test group was prepared as a sample for ELISA analysis. The production of TNF-α was investigated using an ELISA assay kit (ELISA MAX Standard Set Human TNF-α; BioLegend, #430201) and a microplate reader at 450 nm according to the manufacturer's protocol.

[2] = tested on: IL-1β; test: In-vitro anti-inflammatory test: IL-1β expression by western blotting in LPS-treated macrophages (RAW 264.7); type: cell-based; conditions: RAW 264.7, LPS 100 ng/ml, test substance 1 μM and 10 μM, 30 minutes, vs LPS-only control
Method: as §1
In addition, […] macrophages (RAW 264.7) were dispensed in each well of a 96-well plate together with 0.1 mL of Dulbecco's modified Eagle's medium (DMEM) containing 10% FBS (GIBCO) and 1% penicillin/streptomycin. After incubation for 1 day in a 5% CO2 incubator at 37° C., when the confluency of the cells reached 80% or higher, LPS (100 ng/ml) and the test substance were treated at concentrations of 1 μM and 10 μM, respectively, and incubated for 30 minutes. A control group was treated only with LPS (100 ng/ml) and incubated for 30 minutes. The cells were lysed using an NP40 cell lysis buffer and quantified by Bradford assay. Then, the expression level of IL-1β was measured by western blotting.

[3] = tested on: dry eye syndrome-induced C57BL/6NHsd mice; test: Dry eye syndrome model: tear volume by phenol red thread test; type: in vivo; conditions: 2 μL/eye, 3 times a day; for tear volume level vs normal control group (G1) / tear volume level vs induced control group (G2): days 5 and 10; for tear volume level vs induced control group (G2): p<0.001, p<0.01 or p<0.05
Method: (§2) Dry eye syndrome was induced in specific pathogen-free (SPF) C57BL/6NHsd mice (male, 7 weeks old) [Koatech, Korea]. Specifically, during the dry eye syndrome induction period (from day −10 to day 0), scopolamine hydrobromide dissolved in physiological saline (PBS) was injected subcutaneously into the back skin of mice at a dose of 0.5 mg/0.2 mL, 4 times a day, for 10 days. After measuring the tear volume of the dry eye syndrome-induced mice, the mice were randomly divided into groups of G2 to G6 as shown in Table 1 so that the average tear volume of each group was distributed uniformly. G1 is a normal control group in which dry eye syndrome was not induced.
(§3) From the day of the induction of dry eye syndrome (day 0), the compound prepared in Example 2 as a test substance (i.e., acetate of the compound of the Chemical Formula 1b, hereinafter referred to as ‘Compound 1b’) was dissolved in physiological saline (PBS) at concentrations of 0.1% and 1% and dropped onto the center of the right cornea of the mice of G4 and G5 3 times a day for 10 days, respectively. G2 is a dry eye syndrome-induced control group. For G3, physiological saline (PBS) was dropped onto the center of the cornea of the right eye of the mice in which dry eye syndrome was induced. For G6 (positive control group), Restasis® ophthalmic solution (0.05%, containing cyclosporine) was dropped onto the center of the cornea of the right eye of the dry eye syndrome-induced mice.
Tear volume was measured by phenol red thread (PRT) test. Specifically, on days 5 and 10 after the start of the administration of the test substance, a phenol red thread was placed in the lateral canthus of the eye for 20 seconds and then tear volume (mm) was measured.
(§4) Statistical analysis was performed using Prism 7.04 (GraphPad Software Inc., San Diego, CA, USA), and a p-value smaller than 0.05 was judged to be statistically significant.

[4] = tested on: dry eye syndrome-induced C57BL/6NHsd mice; test: Dry eye syndrome model: corneal fluorescein staining score (NEI grading); type: in vivo; conditions: 2 μL/eye, 3 times a day, day 5 to day 10; for corneal fluorescein staining score vs PBS group (G3): p<0.001 or p<0.01; for corneal fluorescein staining score vs normal control (G1): p<0.01 or p<0.05
Method: as §2, §3, §4

[5] = tested on: dry eye syndrome-induced C57BL/6NHsd mice; test: Dry eye syndrome model: histopathological examination (H&E) of inflammation; type: in vivo; conditions: day 10; for level of inflammation and fibrosis vs G2 and G3 (histopathology): 2 μL/eye, 3 times a day for 10 days, p<0.001 or p<0.05
Method: as §2, §3
On the day of autopsy (day 10), the animal was euthanized and the eyeball was removed to include the conjunctiva and fixed in a 10% neutral buffered formalin solution. Samples for histopathological examination were prepared through the processes of trimming, dehydration, paraffin embedding and thin-sectioning of the fixed tissue, followed by hematoxylin and eosin (H&E) staining. Then, the infiltration of inflammatory cells into the cornea, conjunctiva and anterior chamber was evaluated by optical microscopy (Olympus BX53, Japan). The inflammation of the cornea and conjunctiva was assessed according to the known method. The scoring criteria were as follows. Scores: 0 (normal), 1 (mild), 2 (moderate), 3 (severe).
as §4

[6] = tested on: corneal damage-induced Sprague-Dawley rats; test: Corneal damage model: corneal fluorescein staining score (NEI grading); type: in vivo; conditions: 10 μL/eye, 3 times a day; for corneal fluorescein staining score vs normal control group (G1): 6 hours to 5 days, p<0.01; for corneal fluorescein staining score vs induced control (G2): at 6 hours and on days 2 to 6, p<0.001, p<0.01 or p<0.05; for corneal fluorescein staining score vs PBS group (G3): days 3 to 6, p<0.001 or p<0.01
Method: (§5) Corneal damage was induced in pathogen-free (SPF) Sprague-Dawley rats (male, 7 weeks old) [Koatech, Korea]. Specifically, after anesthetizing the rats, a filter paper soaked in 2 μL of 0.1 M NaOH solution was applied to the center of the cornea of the right eye for about 10 seconds, and then washed with physiological saline. The body weight of the corneal damage-induced rats was measured, and they were randomly divided into groups G2 to G6 as shown in Table 2 so that the average body weight of each group was distributed uniformly. G1 is a normal control group in which corneal damage was not induced.
From the day of the corneal damage (day 0), the compound prepared in Example 2 as a test substance (i.e., acetate of the compound of the Chemical Formula 1b, hereinafter referred to as ‘Compound 1b’) was dissolved in physiological saline (PBS) at concentrations of 0.1% and 1% and instilled into the eye of the mice of G4 and G5 at 10 μL/eye, 3 times a day, for 7 days. G2 is an induced control group in which corneal damage was induced. For G3, physiological saline (PBS) was instilled 10 into the eye of the corneal damage-induced rats. For G6 (positive control), Restasis® ophthalmic solution (0.05%, containing cyclosporine) was instilled into the eye of the corneal damage-induced rats.
as §4

[7] = tested on: corneal damage-induced Sprague-Dawley rats; test: Corneal damage model: histopathological examination (H&E) of inflammatory cell infiltration; type: in vivo; conditions: 10 μL/eye, 3 times a day for 7 days, day 7
Method: as §5, with “induced. […]” for “induced.”
On the day of autopsy (day 7), the animal was euthanized, and the eyeball was removed to include the conjunctiva and fixed in a 10% neutral buffered formalin solution. […] Then, the infiltration of inflammatory cells into the cornea, conjunctiva and anterior chamber was evaluated by optical microscopy (Olympus BX53, Japan). The infiltration of inflammatory cells into the corneal stroma and anterior chamber was evaluated according to the known method. […]

## NC(=O)C[C@@H](NC(=O)[C@H](N)CC(=O)O)C(=O)N[C@H](CC(=O)O)C(=O)O [Chemical Formula 1a] (H-[dD]-[dN]-[dD]-OH)
[1]
  secretion of inflammatory cytokine TNF-α: inhibited in a concentration-dependent manner
[2]
  expression of inflammatory cytokine IL-1β: inhibited in a concentration-dependent manner

## NC(=O)C[C@@H](NC(=O)[C@H](N)CC(=O)O)C(=O)N[C@H](CC(=O)O)C(N)=O [Compound 1b] (H-[dD]-[dN]-[dD]-NH2)
[1]
  secretion of inflammatory cytokine TNF-α: inhibited in a concentration-dependent manner
[2]
  expression of inflammatory cytokine IL-1β: inhibited in a concentration-dependent manner
[3]; G4: 0.1% in PBS, day 10, p<0.001
  tear volume level vs PBS group (G3): significantly higher than that of G3
[3]; G4: 0.1% in PBS, p<0.001
  tear volume level vs normal control group (G1): statistically significantly lower than that of the normal control group (G1)
[3]; G4: 0.1% in PBS
  tear volume level vs induced control group (G2): significantly higher than that of G2
[3]; G5: 1% in PBS, day 5, p<0.01
  tear volume level vs PBS group (G3): statistically significantly higher than that of G3
[3]; G5: 1% in PBS, day 10, p<0.001
  tear volume level vs PBS group (G3): significantly higher than that of G3
[3]; G5: 1% in PBS, p<0.001
  tear volume level vs normal control group (G1): statistically significantly lower than that of the normal control group (G1)
[3]; G5: 1% in PBS
  tear volume level vs induced control group (G2): significantly higher than that of G2
[4]; G4: 0.1% in PBS
  corneal fluorescein staining score vs induced control (G2): significantly lower than that of G2
  corneal fluorescein staining score vs PBS group (G3): statistically significantly lower than that of G3
  corneal fluorescein staining score vs normal control (G1): statistically significantly higher than that of G1
[4]; G5: 1% in PBS
  corneal fluorescein staining score vs induced control (G2): significantly lower than that of G2
  corneal fluorescein staining score vs PBS group (G3): statistically significantly lower than that of G3
  corneal fluorescein staining score vs normal control (G1): statistically significantly higher than that of G1
[5]; 0.1% test substance-administered group
  inflammation in the cornea and conjunctiva (histopathology): no inflammation was observed
[5]; 1% test substance-administered group
  inflammation in the cornea and conjunctiva (histopathology): no inflammation was observed
[5]; G4: 0.1% in PBS
  level of inflammation and fibrosis vs G2 and G3 (histopathology): significantly lower as compared to G2 and G3
[5]; G5: 1% in PBS
  level of inflammation and fibrosis vs G2 and G3 (histopathology): significantly lower as compared to G2 and G3
[6]; G4: 0.1% in PBS
  corneal fluorescein staining score vs normal control group (G1): statistically significantly higher than that of the normal control group (G1)
  corneal fluorescein staining score vs induced control (G2): significantly lower than that of G2
  corneal fluorescein staining score vs PBS group (G3): significantly lower than that of G3
[6]; G5: 1% in PBS
  corneal fluorescein staining score vs normal control group (G1): statistically significantly higher than that of the normal control group (G1)
  corneal fluorescein staining score vs induced control (G2): significantly lower than that of G2
  corneal fluorescein staining score vs PBS group (G3): significantly lower than that of G3
[7]; G4: 0.1% in PBS
  degree of infiltration of inflammatory cells into corneal keratocytes and anterior chamber vs G2 and G3: statistically significantly lower
[7]; G5: 1% in PBS
  degree of infiltration of inflammatory cells into corneal keratocytes and anterior chamber vs G2 and G3: statistically significantly lower
